# Literature values as cited in patent US7718658B2 (priority 2004, dated 2010).
# System: neuropathic pain
# Settings: in vivo
smiles,measurement,value
NCC1(CC(=O)O)CCCCC1 [Gabapentin],share of patients in whom it works,60%
